According to patent publication US20140228430A1, “Method of Accelerating Corneal Wound Healing” (Alcon Research, Ltd., priority 2010, published 2014):

Tested on: Rat Model of Corneal Injury
Assay: Rat model of corneal injury (corneal epithelial wound closure)
Format: in vivo
Settings: topical ocular 5 μl every 2 hrs for first 8 hrs, female Lewis rats, compared with positive control 0.4% HA; for normalized number of completely healed eyes (Healed 24 hours n=10): number/10 eyes
Method: Female Lewis rats (175-200 g) were anesthetized with a xylazine/ketamine cocktail (5 mg/kg and 50 mg/kg respectively). A 3 mm diameter circle was superficially demarcated on the central cornea using a 3 mm trephine. Using a corneal rust ring remover (AlgerbrushΠ Alger Co.) tipped with a 1 mm steel burr; the corneal epithelium was removed to the basement membrane within the established 3 mm boundary Immediately following epithelial removal, the corneas were topically stained with 2% sodium fluorescein (Alcon), washed with balanced saline (BSS) and Time 0 hrs images acquired. After 24 hrs, animals were again anesthetized and Time 24 hrs images were acquired.
Immediately after acquisition of Time 0 images, test articles (5 μl) were topically administered to the ocular surface. Animals received topical administration every 2 hrs for the first 8 hrs of the 24 hrs study time. A 0.4% solution of Hyaluronic Acid (HA) was prepared in phosphate-buffered saline (PBS). Compounds 1 and 5 were prepared in PBS and stored at −70° C. until use. During dosing, compounds were stored at 4° C.
Anesthetized rats (Time 0: xylazine/ketamine; Time 24 hrs: 5% isoflurane gas). The area of the cornea devoid of epithelial cells was stained by topical application of a 2% sodium fluorescein solution (Alcon), followed 10 seconds later with a thorough rinsing with BSS. Images from stained eyes were collected with a Canon digital camera fitted with a macro and close-up lens such that the cornea filled almost the entire image field. A continuous and flash illumination was provided with a Novoflex Cold Light Source Macrolight Plus illuminator. The continuous source was used to focus the eye with the aid of the video output of the Canon camera. A flash lamp illuminator and ring light attached to the camera lens system provided a synchronized and uniform illumination of the corneal surface. Eyes were illuminated and images were captured through a set of filters designed for fluorescein excitation (482±35 nm) and emission (536±40 nm).
Two image files were recorded for each exposure, a JPG-format RGB (red-green-blue) file used for image display and a Canon Raw file containing the raw sensor data. The raw data was extracted to a 16-bit portable greymap file that was subsequently processed with a demosaic function to make an image of only the green pixels containing the fluorescein information. A circular region of interest (ROI) was centered on the cornea and the automated analysis was performed using RatOSIWound v 2.0 software (Alcon). Automated analysis calculated the total fluorescein positive area of a single large spot indicative of the epithelial wound. The % closure at 24 hours (indicated as “% Closure 24 hours” on the ordinate axis of the graphs in FIGS. 1 and 3) was calculated as
while the number of eyes that were totally healed (that is, had no detectable defect; indicated as “Healed 24 hours n=10” on the ordinate axis of the graphs in FIGS. 2 and 4), normalized as number/10 eyes, was also determined
Data were analyzed using an ANOVA with a Dunnett post-hoc test at a 95% confidence interval.

Row | SMILES | % wound closure (% Closure 24 hours) (0.5% w/v dose in PBS) | normalized number of completely healed eyes (Healed 24 hours n=10) (0.5% w/v dose in PBS) | % wound closure (% Closure 24 hours) (1% w/v dose in PBS) | normalized number of completely healed eyes (Healed 24 hours n=10) (1% w/v dose in PBS)
1 | COC(=O)CCC[C@H](O)[C@H](O)CO [compound 1] | as effective as the positive control 0.4% HA | as effective as the positive control 0.4% HA | as effective as the positive control 0.4% HA | as effective as the positive control 0.4% HA
2 | O=C([O-])CCC[C@H](O)[C@H](O)CO.[Li+] [compound 5] | – | – | as effective as the positive control 0.4% HA | as effective as the positive control 0.4% HA
